Reference: patent EP0193944A1, “Derivatives of 5-fluorouracil” (Nippon Kayaku Kabushiki Kaisha, priority 1985, dated 1986)

Test system: murine leukemia P388
Test: Antitumor effect to murine leukemia P388 (survival of implanted mice, oral dosing)
Assay type: in vivo
Settings: for Survival Rate (T/C x 100): orally once daily for 5 consecutive days, female CDF1-SLC mice, P 388 cells implanted subcutaneously
Protocol: Antitumor effect to murine leukemia P388. • Test compounds: 5-FU and compound No.1 (1-(4,4-dimethyl-6-oxo-l-cyclohexenyl)methylcarbamoyl-5-fluorouracil) • Method : 1 x 10^6 leukemia P 388 cells per mouse were implanted subcutaneously to female mice (CDFl-SLC strain, 18-21 g of weight). The control and test group consisted of 3 and 1 mice respectively. The compound No.l and 5-FU were dissolved in 100% dimethylsulfoxide respectively to be adjusted to various concentrations. The solution was administered orally to each mouse once daily for 5 consecutive days, starting 24 hours after the implantation.
Average period in days of survival in the group receiving the compound of this invention (T) and average period in days of survival in the control group (C) were determined to calculate survival rates (T/C x 100%).

Compound	Survival Rate (T/C x 100) (Dose 2.7 mg/kg/inj)	Survival Rate (T/C x 100) (Dose 5.3 mg/kg/inj)	Survival Rate (T/C x 100) (Dose 10.5 mg/kg/inj)	Survival Rate (T/C x 100) (Dose 21 mg/kg/inj)	Survival Rate (T/C x 100) (Dose 42 mg/kg/inj)	Survival Rate (T/C x 100) (Dose 84 mg/kg/inj)	Survival Rate (T/C x 100) (Dose 25 mg/kg/inj)	Survival Rate (T/C x 100) (Dose 50 mg/kg/inj)	Survival Rate (T/C x 100) (Dose 100 mg/kg/inj)	Survival Rate (T/C x 100) (Dose 200 mg/kg/inj)	Survival Rate (T/C x 100) (Dose 400 mg/kg/inj)	toxicity compared with 5-FU (conclusion from the dose range in the P388 mouse model, oral)
O=c1[nH]cc(F)c(=O)[nH]1 [5-FU, 5-Fluorouracil]	101%	103%	103%	115%	64.7%	52.5%						
CC1(C)CC=C(CNC(=O)n2cc(F)c(=O)[nH]c2=O)C(=O)C1 [Compound No.1, 1-(4,4-dimethyl-6-oxo-l-cyclohexenyl)methylcarbamoyl-5-fluorouracil]							115%	129%	151%	122%	71.9%	less toxic than 5-FU
